The source made the active and inactive calls. No cut-off for these calls is given here.
Legend:
SK-MEL-28 = assay: Cytotoxicity against human SK-MEL-28 cells assessed as inhibition of cell growth incubated for 48 hrs by MTT assay; assay type: functional, cell-based; conditions: SK-MEL-28, 48 h
A549 [1] = assay: Cytotoxicity against human A549 cells assessed as inhibition of cell growth incubated for 48 hrs by MTT assay; assay type: functional, cell-based; conditions: A549, 48 h
HepG2 = assay: Cytotoxicity against human HepG2 cells assessed as inhibition of cell growth incubated for 48 hrs by MTT assay; assay type: functional, cell-based; conditions: HepG2, 48 h
MCF7 = assay: Cytotoxicity against human MCF7 cells assessed as inhibition of cell growth incubated for 48 hrs by MTT assay; assay type: functional, cell-based; conditions: MCF7, 48 h
HCT-116 = assay: Cytotoxicity against human HCT-116 cells assessed as inhibition of cell growth incubated for 48 hrs by MTT assay; assay type: functional, cell-based; conditions: HCT-116, 48 h
[2] = Cytotoxicity against HEK293 cells assessed as inhibition of cell growth incubated for 48 hrs by MTT assay; assay type: toxicity, cell-based; conditions: human
A549 [3] = assay: Induction of ROS generation in human A549 cells assessed as fold change at 3 uM by DCFDA-H2 fluorescent dye based flow cytometric analysis relative to control; assay type: functional
A549 [4] = assay: Induction of ROS generation in human A549 cells assessed as fold change at 6 uM by DCFDA-H2 fluorescent dye based flow cytometric analysis relative to control; assay type: functional
A549 [5] = assay: Induction of ROS generation in human A549 cells assessed as fold change at 9 uM by DCFDA-H2 fluorescent dye based flow cytometric analysis relative to control; assay type: functional
A549 [6] = assay: Induction of DNA damage in human A549 cells assessed as DNA condensation by measuring increase in fluorescence intensity at 3 to 9 uM by DAPI staining based fluorescence microscopic analysis; assay type: functional, cell-based; conditions: dose 3-9 µM
A549 [7] = assay: Induction of apoptosis in human A549 cells assessed as appearance of shrunken cells with fragmented nucleus at 3 to 9 uM by DAPI staining based fluorescence microscopic analysis; assay type: functional, cell-based; conditions: dose 3-9 µM
A549 [8] = assay: Induction of DNA damage in human A549 cells assessed as decrease in green fluorescence at 3 to 9 uM by acridine orange/EtBr staining based analysis; assay type: functional, cell-based; conditions: dose 3-9 µM
A549 [9] = assay: Induction of DNA damage in human A549 cells assessed as increase in red fluorescence at 3 to 9 uM by acridine orange/EtBr staining based analysis; assay type: functional, cell-based; conditions: dose 3-9 µM
A549 [10] = assay: Induction of apoptosis in human A549 cells assessed as reduction in green intensity at 3 to 9 uM by acridine orange/EtBr staining based analysis; assay type: functional, cell-based; conditions: dose 3-9 µM
A549 [11] = assay: Induction of apoptosis in human A549 cells assessed as increase in yellowish green intensity at 3 to 9 uM by acridine orange/EtBr staining based analysis; assay type: functional, cell-based; conditions: dose 3-9 µM
A549 [12] = assay: Induction of apoptosis in human A549 cells assessed as increase in late apoptotic cells by measuring orange red signals at 3 to 9 uM by acridine orange/EtBr staining based analysis; assay type: functional, cell-based; conditions: dose 3-9 µM
A549 [13] = assay: Induction of apoptosis in human A549 cells assessed as increase in necrotic cells by measuring red signals at 3 to 9 uM by acridine orange/EtBr staining based analysis; assay type: functional, cell-based; conditions: dose 3-9 µM
A549 [14] = assay: Induction of apoptosis in human A549 cells assessed as early apoptotic cells at 3 uM by Annexin V-FITC/PI staining based flow cytometric analysis (reference value: 0.32 %); assay type: functional
A549 [15] = assay: Induction of apoptosis in human A549 cells assessed as late apoptotic cells at 3 uM by Annexin V-FITC/PI staining based flow cytometric analysis (reference value: 0.19 %); assay type: functional
A549 [16] = assay: Induction of apoptosis in human A549 cells assessed as necrotic cells at 3 uM by Annexin V-FITC/PI staining based flow cytometric analysis (reference value: 0.46 %); assay type: functional
A549 [17] = assay: Induction of apoptosis in human A549 cells assessed as early apoptotic cells at 6 uM by Annexin V-FITC/PI staining based flow cytometric analysis (reference value: 0.32 %); assay type: functional
A549 [18] = assay: Induction of apoptosis in human A549 cells assessed as late apoptotic cells at 6 uM by Annexin V-FITC/PI staining based flow cytometric analysis (reference value: 0.19 %); assay type: functional
A549 [19] = assay: Induction of apoptosis in human A549 cells assessed as necrotic cells at 6 uM by Annexin V-FITC/PI staining based flow cytometric analysis (reference value: 0.46 %); assay type: functional
A549 [20] = assay: Induction of apoptosis in human A549 cells assessed as early apoptotic cells at 9 uM by Annexin V-FITC/PI staining based flow cytometric analysis (reference value: 0.32 %); assay type: functional
A549 [21] = assay: Induction of apoptosis in human A549 cells assessed as late apoptotic cells at 9 uM by Annexin V-FITC/PI staining based flow cytometric analysis (reference value: 0.19 %); assay type: functional
A549 [22] = assay: Induction of apoptosis in human A549 cells assessed as necrotic cells at 9 uM by Annexin V-FITC/PI staining based flow cytometric analysis (reference value: 0.46 %); assay type: functional
A549 [23] = assay: Induction of apoptosis in human A549 cells assessed as reduction in Bcl-2 expression at 3 uM by PI staining based flow cytometric analysis relative to control; assay type: functional; design: scale not given: the % may be the effect or the level left
A549 [24] = assay: Induction of apoptosis in human A549 cells assessed as reduction in Bcl-2 expression at 6 uM by PI staining based flow cytometric analysis relative to control; assay type: functional; design: scale not given: the % may be the effect or the level left
A549 [25] = assay: Induction of apoptosis in human A549 cells assessed as reduction in Bcl-2 expression at 9 uM by PI staining based flow cytometric analysis relative to control; assay type: functional; design: scale not given: the % may be the effect or the level left
A549 [26] = assay: Cell cycle arrest in human A549 cells assessed as accumulation of cells at G2/M phase at 3 uM by PI staining based flow cytometric analysis (reference value: 11.5 %); assay type: functional
A549 [27] = assay: Cell cycle arrest in human A549 cells assessed as accumulation of cells at G2/M phase at 6 uM by PI staining based flow cytometric analysis (reference value: 11.5 %); assay type: functional
A549 [28] = assay: Cell cycle arrest in human A549 cells assessed as accumulation of cells at G2/M phase at 9 uM by PI staining based flow cytometric analysis (reference value: 11.5 %); assay type: functional

Cc1ccc(C(=O)CN2C(=O)S/C(=C\c3coc4cc(F)ccc4c3=O)C2=O)cc1
IC50 (SK-MEL-28): > 10 µM
IC50 (A549 [1]): > 10 µM
IC50 (HepG2): > 10 µM
IC50 (MCF7): > 10 µM
IC50 (HCT-116): > 10 µM
IC50 at 48 h [2]: 16.6 µM

COc1ccc(C(=O)CN2C(=O)S/C(=C\c3coc4ccccc4c3=O)C2=O)cc1
IC50 (SK-MEL-28): > 10 µM
IC50 (A549 [1]): 8.8 µM
IC50 (HepG2): > 10 µM
IC50 (MCF7): > 10 µM
IC50 (HCT-116): > 10 µM
IC50 at 48 h [2]: 168 µM

O=C(CN1C(=O)S/C(=C\c2coc3ccccc3c2=O)C1=O)c1ccccc1
IC50 (SK-MEL-28): > 10 µM
IC50 (A549 [1]): > 10 µM
IC50 (HepG2): > 10 µM
IC50 (MCF7): > 10 µM
IC50 (HCT-116): > 10 µM
IC50 at 48 h [2]: 17.5 µM

Cc1ccc(C(=O)CN2C(=O)S/C(=C\c3coc4ccc(C)cc4c3=O)C2=O)cc1
IC50 (SK-MEL-28): > 10 µM
IC50 (A549 [1]): 8.2 µM
IC50 (HepG2): > 10 µM
IC50 (MCF7): > 10 µM
IC50 (HCT-116): > 10 µM
IC50 at 48 h [2]: 14.1 µM

Cc1ccc2occ(/C=C3\SC(=O)N(CC(=O)c4ccc(Br)cc4)C3=O)c(=O)c2c1
IC50 (SK-MEL-28): 9.1 µM
IC50 (A549 [1]): > 10 µM
IC50 (HepG2): > 10 µM
IC50 (MCF7): > 10 µM
IC50 (HCT-116): > 10 µM
IC50 at 48 h [2]: 16.5 µM

COc1ccc(C(=O)CN2C(=O)S/C(=C\c3coc4cc(Br)ccc4c3=O)C2=O)cc1
IC50 (SK-MEL-28): > 10 µM
IC50 (A549 [1]): 6.1 µM
IC50 (HepG2): > 10 µM
IC50 (MCF7): 8.9 µM
IC50 (HCT-116): > 10 µM
IC50 at 48 h [2]: 14.1 µM
fold change (FC) (A549 [3]): 1.07
fold change (FC) (A549 [4]): 1.4
fold change (FC) (A549 [5]): 8.9
Activity (A549 [6]): Active
Activity (A549 [7]): Active
Activity (A549 [8]): Active
Activity (A549 [9]): Active
Activity (A549 [10]): Active
Activity (A549 [11]): Active
Activity (A549 [12]): Active
Activity (A549 [13]): Active
Activity (A549 [14]): 1.94%
Activity (A549 [15]): 0.98%
Activity (A549 [16]): 0.27%
Activity (A549 [17]): 3.1%
Activity (A549 [18]): 2.2%
Activity (A549 [19]): 0.3%
Activity (A549 [20]): 10.9%
Activity (A549 [21]): 6.6%
Activity (A549 [22]): 0.29%
Activity (A549 [23]): 31.7%
Activity (A549 [24]): 38.2%
Activity (A549 [25]): 79.1%
Activity (A549 [26]): 18.08%
Activity (A549 [27]): 18.4%
Activity (A549 [28]): 21.6%

N#Cc1ccc(C(=O)CN2C(=O)S/C(=C\c3coc4ccccc4c3=O)C2=O)cc1
IC50 (SK-MEL-28): > 10 µM
IC50 (A549 [1]): 8.8 µM
IC50 (HepG2): > 10 µM
IC50 (MCF7): > 10 µM
IC50 (HCT-116): > 10 µM
IC50 at 48 h [2]: 27.8 µM

O=C(CN1C(=O)S/C(=C\c2coc3cc(F)ccc3c2=O)C1=O)c1ccc(Cl)cc1
IC50 (SK-MEL-28): > 10 µM
IC50 (A549 [1]): > 10 µM
IC50 (HepG2): > 10 µM
IC50 (MCF7): > 10 µM
IC50 (HCT-116): > 10 µM
IC50 at 48 h [2]: 13.4 µM

O=C(CN1C(=O)S/C(=C\c2coc3ccccc3c2=O)C1=O)c1ccc(F)cc1
IC50 (SK-MEL-28): > 10 µM
IC50 (A549 [1]): 8.2 µM
IC50 (HepG2): > 10 µM
IC50 (MCF7): > 10 µM
IC50 (HCT-116): > 10 µM
IC50 at 48 h [2]: 15.5 µM

Cc1ccc(C(=O)CN2C(=O)S/C(=C\c3coc4cc(Br)ccc4c3=O)C2=O)cc1
IC50 (SK-MEL-28): > 10 µM
IC50 (A549 [1]): 6.5 µM
IC50 (HepG2): > 10 µM
IC50 (MCF7): 10.1 µM
IC50 (HCT-116): > 10 µM
IC50 at 48 h [2]: 15.1 µM

— ChEMBL document CHEMBL5576084, “Development of chromone-thiazolidine-2,4-dione Knoevenagel conjugates as apoptosis inducing agents” (Bioorg Med Chem Lett, 2024)
